# Laboratory results published in patent US11872263B2, “AIMP1 protein fragment and hair growth-promoting composition containing same as active ingredient” (CUREBIO THERAPEUTICS, priority 2016, dated 2024).
# Tests used:
# [1] = tested on: CD34+ hair follicle stem cells; experiment: In vitro hair growth assay / BrdU proliferation assay with CD34+ hair follicle stem cells; format: cell-based, mouse; conditions: each peptide 100 nM, 24 hours
# Protocol: The hair of the dorsal skin of 7 weeks old male C57BL6 mice (purchased from Orient Bio Inc.) were cut with a clipper and skin tissue samples of the depilated dorsal region of the mice were collected. The collected skin tissue samples were immersed in medium using collagenase, DNase I, and hyaluronidase, and cells were isolated using Gentle MACSTM Dissociator (Miltenyi Biotec). After the cells were separated, the separated cells were incubated with a mouse CD34-Biotin antibody (Miltenyi Biotec). Cells and antibody solutions were incubated with streptavidin microbeads (Miltenyi Biotec) and then separated using LS column (Miltenyi Biotec). The separated cells were cultured in DMEM medium containing 10% FBS, 1% penicillin/streptomycin solution in humidified air of 95% 02 and 5% CO2 at 37° C.
# Cell proliferation can be confirmed using the BrdU cell proliferation assay kit (Cell Signaling). Proliferation assays were performed using protocols presented by […]. Briefly, the cells were incubated with BrdU for 2 h. The primary BrdU detection antibody was incubated for 1 hour and the secondary anti-mouse IgG, HRP-conjugate antibody was incubated for 30 minutes.
# A hair growth in vitro assay was performed using the Cyquant Assay (Thermo Fisher). […]
# [2] = tested on: dorsal hair of depilated C57BL6 mice; experiment: In vivo hair regrowth after depilation of dorsal skin of mice; design: species or system mouse; conditions: 13 days after depilation, 100 nM polypeptide, 80 μl topical once a day
# Protocol: (§1) The hair of the dorsal skin of mice (7 weeks old male C57BL6, purchased from Orient Bio Inc.) was cut out with a clipper, and hair removal cream (Niclean, Ildong Pharmaceutical) was applied. The depilated area was about 2×2.5 cm. Mice were treated with 20% glycerol/PBS (control group), 3% Minoxidil (MNX, 140 mM), FGF7 (100 nM) or Neo-Pep of the present invention (polypeptide of SEQ ID NO: 1, 100 nM), respectively, once a day in 80 μl using brush, for 13 days (n=6 per group).
# as §1, with “Specifically, the hair” for “The hair”, “of a mouse” for “of mice”, “group). For comparative observation, the dorsal skin of the mouse was photographed before and after the beginning of the test.” for “group).”
Sequence,inducing proliferation of CD34+ hair follicle stem cells (relative cell number) [1],dorsal hair growth compared with control group [2]
"KGAEADQIIEYLKQQVSLLK (Homo sapiens N3 polypeptide; Neo-Pep-(9-28)) [Polypeptide N3, fragment of Neo-Pep consisting of 20 consecutive amino acids without KEKA]",didn't show any effect,–
"ADQIIEYLKQQVSLL (Homo sapiens N11 polypeptide; Neo-Pep-(13-27)) [Polypeptide N11, fragment of Neo-Pep consisting of 15 amino acids without KEKA]",–,didn't show such effect
"AVLKRLEQKGAEADQ (Homo sapiens N9 polypeptide; Neo-Pep-(1-15)) [Polypeptide N9, fragment of Neo-Pep consisting of 15 amino acids without KEKA]",–,didn't show such effect
"QVSLLKEKAILQATLREEK (Homo sapiens N8 polypeptide; Neo-Pep-(23-41)) [Polypeptide N8, fragment of Neo-Pep comprising KEKA]",induced proliferation,–
"KQQVSLLKEKAILQATLREE (Homo sapiens N7 polypeptide; Neo-Pep-(21-40)) [Polypeptide N7, fragment of Neo-Pep comprising KEKA]",induced proliferation,–
"LKEKAILQATLREEK (Homo sapiens N14 polypeptide; Neo-Pep-(27-41)) [Polypeptide N14, fragment of Neo-Pep consisting of 15 amino acids comprising KEKA]",–,grew much more
"IEYLKQQVSLLKEKA (Homo sapiens N12 polypeptide; Neo-Pep-(17-31)) [Polypeptide N12, fragment of Neo-Pep consisting of 15 amino acids comprising KEKA]",–,grew much more
"EADQIIEYLKQQVSL (Homo sapiens N10 polypeptide; Neo-Pep-(12-26)) [Polypeptide N10, fragment of Neo-Pep consisting of 15 amino acids without KEKA]",–,didn't show such effect
"AVLKRLEQKGAEADQIIEYL (Homo sapiens N1 polypeptide; Neo-Pep-(1-20)) [Polypeptide N1, fragment of Neo-Pep consisting of 20 consecutive amino acids without KEKA]",didn't show any effect,–
"KQQVSLLKEKAILQA (Homo sapiens N13 polypeptide; Neo-Pep-(21-35)) [Polypeptide N13, fragment of Neo-Pep consisting of 15 amino acids comprising KEKA]",–,grew much more
"LKRLEQKGAEADQIIEYLKQ (Homo sapiens N2 polypeptide; Neo-Pep-(3-22)) [Polypeptide N2, fragment of Neo-Pep consisting of 20 consecutive amino acids without KEKA]",didn't show any effect,–
"AEADQIIEYLKQQVSLLKEK (Homo sapiens N4 polypeptide; Neo-Pep-(11-30)) [Polypeptide N4, fragment of Neo-Pep consisting of 20 consecutive amino acids without KEKA]",didn't show any effect,–
"YLKQQVSLLKEKAILQATLR (Homo sapiens N6 polypeptide; Neo-Pep-(19-38)) [Polypeptide N6, fragment of Neo-Pep comprising KEKA]",induced proliferation,–
"IEYLKQQVSLLKEKAILQAT (Homo sapiens N5 polypeptide; Neo-Pep-(17-36)) [Polypeptide N5, fragment of Neo-Pep comprising KEKA]",induced proliferation,–
